Laboratory results as given in patent US9522962B2, “Peptides, conjugates and method for increasing immunogenicity of a vaccine” (Academisch Ziekenhuis Leiden h.o.d.n. LUMC, priority 2010, dated 2016).
Entries after “also recorded” stand apart in the source; their conditions may differ. Like-named read-outs stand apart in the source and are kept apart here. Square brackets hold non-standard residues; d marks the D form. Ends that are not written are not given here. * marks the point of attachment. Biotin = O=C1N[C@H]2[C@H](CS[C@H]2CCCCC(=O)*)N1; code O = not defined here; Ahx = NCCCCCC(=O)O

How the values were obtained:
[1] = tested on: antibodies in TETAQUIN® (anti-TTd antibodies); assay type: binding, human; settings: for binding to TETAQUIN (screen of overlapping 22-mer TTx peptides): FIG. 3 (α-chain), FIG. 4 (β-chain); for ELISA OD, effect of longer spacer and C- versus N-terminal biotinylation: Table 4, antibody source not given
[2] = tested on: antibodies in individual human sera (e.g. serum 034960); experiment: Tettox ELISA of biotinylated peptides on individual human sera; assay type: binding; settings: for ELISA OD SERUM 034960: human serum 034960 diluted 100x
Procedure: a 96-wells plate (preferably from Euro-Diagnostica, Arnhem, The Netherlands) is coated with streptavidin. The streptavidin coated 96 wells plate is blocked with PBS containing 5% BSA (200 μl/well, 1 h, room temperature). Subsequently, the plate is washed three times with PBS containing 0.05% TWEEN20® (polysorbate 20). A biotinylated peptide is coated by 1 h incubation at room temperature with 100 μl/well of a 2 μg/ml solution of the biotinylated peptide in PBS containing 1% BSA. The plate is washed three times with PBS containing 0.05% TWEEN20® (polysorbate 20) followed by incubation for 1 h at room temperature with 100 μl serum from […] a human subject as defined above (preferably having a high titer of anti-TTd antibodies) that had been diluted at least 100, 200, 400, 500 or 1000 times and preferably not more than 100,000, 10,000, 7,500, 5,000 or 2,500 times with PBS containing 1% BSA. Then the plate is washed three times with PBS containing 0.05% TWEEN20®(polysorbate 20). Each well is incubated for 1 h at room temperature with a HRP-conjugated IgG antibody (mouse anti-human IgG-HRP monoclonal, clone G18-145, cat no 555788, Becton Dickinson, 100 μl/well of a 1000× dilution in PBS containing 0.05% TWEEN20® (polysorbate 20)) after which the plate is washed three times with PBS containing 0.05% TWEEN20® (polysorbate 20). Development is performed with 2,2′-azino-di-(3-ethylbenzthiazoline sulfonic acid), ABTS+H2O2 1/1000, 100 μl/well. Optical density is measured at 415 nm with a BIO-RAD, model 680, microplate reader. In each plate, preferably a negative contol is included, more preferably at least in triplicate. A preferred negative contol is serum from a human subject without detectable anti-TTd antibodies. Another preferred negative control is a solution of BSA. A peptide according to (ii) above is a peptide according to the invention if it is bound by antibodies in at least 40, 45, 50, 55, 60, 65, 70, 75, 80, 85, 87, 90, 91, 92, 93, 94, 95, 96, 97, 98, 99% most preferably 100% of the tested human serum samples. A peptide is considered to be bound by antibodies in a serum sample if the determined optical density for that particular serum sample is at least 2.0, more preferably 2.5, 3.0, 3.5 or more times higher as compared to the optical density that is determined for the negative control.
Streptavidin coated 96 wells plates (Euro-Diagnostica) were blocked with PBS containing 5% BSA (200 μl/well, 1 h, room temperature). Plates were washed three times with PBS containing 0.05% TWEEN20® (polysorbate 20). Coating of the biotinylated peptides was performed by 1 h incubation at room temperature with 100 μl/well of a 2 μg/ml solution of the biotinylated peptide in PBS containing 1% BSA. Plates were washed three times with PBS containing 0.05% TWEEN20®. Wells were incubated for 1 h at room temperature with either 100 μl TETAQUIN® […] that had been diluted 800× with PBS containing 1% BSA or with 100 μl human serum that had been diluted 100× with PBS containing 1% BSA. Plates were washed three times with PBS containing 0.05% TWEEN20® (polysorbate 20). Each well was incubated for 1 h at room temperature with a HRP-conjugated IgG antibody (mouse anti-human IgG-HRP monoclonal, clone G18-145, cat no 555788, Becton Dickinson, 100 μl/well of a 1000× dilution in PBS containing 0.05% TWEEN20® (polysorbate 20)). Plates were washed three times with PBS containing 0.05% TWEEN20® (polysorbate 20). Development was performed with 2,2′-azino-di-(3-ethylbenzthiazoline sulfonic acid), ABTS+H2O2 1/1000, 100 μl/well. Optical density was measured at 415 nm with a BIO-RAD, model 680, microplate reader.
Thereafter, the inventors tested these 7 peptides on individual sera, because an epitope is needed to which every person makes antibodies.

[3] = Table 6, conservative substitutions scan of […]
[4] = Table 2, length variants of peptide β-32, section 'With linker', […] diluted 800x, OD at 415 nm
[5] = Table 2, length variants of peptide β-32, section 'Without linker' (sequence listed without Z O), […]
[6] = Table 3, further length variants and Lys(formyl) variants, […], neg. control OD 0.30

| Substance | ELISA OD TETAQUIN ([1]; Table 5, Ala scan of […]) | ELISA OD SERUM 034960 ([2]; Table 5, Ala scan of […]) | ELISA OD TETAQUIN [1, 3] | ELISA OD SERUM 034960 [2, 3] | other results |
| --- | --- | --- | --- | --- | --- |
| F I G I T E L A K L E S K I N K V F Z O [0942-17] | 0.62 | 0.65 |  |  |  |
| F I G I T E L K A L E S K I N K V F Z O [0942-18] | 1.06 | 1.22 |  |  |  |
| F I S I T E L K K L E S K I N K V F Z O (FISITELKKLESKINKVF[Ahx]K(Biotin)) [0942-30] |  |  | 1.10 | 1.32 |  |
| F I G I T E L K K L E S K I N K V Y Z O (FIGITELKKLESKINKVY[Ahx]K; not fully specified (residue 20); also: O: biotin modification, exact residue form not clear) [0942-45] |  |  | 1.11 | 1.23 |  |
| F I G I T E L K K L E S K I Q K V F Z O (FIGITELKKLESKIQKVF[Ahx]K(Biotin)) [0942-42] |  |  | 1.41 | 1.26 |  |
| F L G I T E L K K L E S K I N K V F Z O (FLGITELKKLESKINKVF[Ahx]K(Biotin)) [0942-29] |  |  | 1.19 | 1.29 |  |
| F I G I T E L K K L D S K I N K V F Z O (FIGITELKKLDSKINKVF[Ahx]K; not fully specified (residue 20)) [0942-38] |  |  | 0.41 | 0.37 |  |
| F A G I T E L K K L E S K I N K V F Z O [0942-11] | 1.04 | 1.18 |  |  |  |
| F I G I A E L K K L E S K I N K V F Z O [0942-14] | 0.38 | 0.16 |  |  |  |
| F I G I T E L K K A E S K I N K V F Z O [0942-19] | 0.70 | 0.71 |  |  |  |
| F I G I T E L K K L E T K I N K V F Z O (FIGITELKKLETKINKVF[Ahx]K(Biotin)) [0942-39] |  |  | 0.88 | 1.04 |  |
| F I G I T E L K K L E S K I N K L F Z O (FIGITELKKLESKINKLF[Ahx]K; not fully specified (residue 20)) [0942-44] |  |  | 1.30 | 1.47 |  |
| F I A I T E L K K L E S K I N K V F Z O [0942-12] | 0.65 | 0.23 |  |  |  |
| F I G I T A L K K L E S K I N K V F Z O [0942-15] | 1.24 | 1.28 |  |  |  |
| A I G I T E L K K L E S K I N K V F Z O [0942-10] | 1.12 | 1.29 |  |  |  |
| F I G I T E L K K L E S K I N K A F Z O (FIGITELKKLESKINKAF[Ahx]K; not fully specified (residue 20)) [0942-26] | 1.24 | 1.39 |  |  |  |
| F I G I T E A K K L E S K I N K V F Z O [0942-16] | 0.90 | 0.91 |  |  |  |
| F I G I S E L K K L E S K I N K V F Z O [0942-32] |  |  | 0.83 | 0.70 |  |

| Substance | ELISA OD TETAQUIN ([1]; Table 5, Ala scan of […]) | ELISA OD SERUM 034960 ([2]; Table 5, Ala scan of […]) | ELISA OD TETAQUIN [1, 3] | ELISA OD SERUM 034960 [2, 3] | other results |
| --- | --- | --- | --- | --- | --- |
| F I G I T E L K K L A S K I N K V F Z O (FIGITELKKLASKINKVF[Ahx]K; not fully specified (residue 20)) [0942-20] | 0.85 | 0.91 |  |  |  |
| F I G I T D L K K L E S K I N K V F Z O [0942-33] |  |  | 1.01 | 0.95 |  |
| F I G I T E L K K L E A K I N K V F Z O (FIGITELKKLEAKINKVF[Ahx]K; not fully specified (residue 20)) [0942-21] | 1.27 | 1.48 |  |  |  |
| F I G L T E L K K L E S K I N K V F Z O (FIGLTELKKLESKINKVF[Ahx]K(Biotin)) [0942-31] |  |  | 0.97 | 1.19 |  |
| F I G I T E L K K I E S K I N K V F Z O [0942-37] |  |  | 1.11 | 1.14 |  |
| F I G I T E L K K L E S K I N A V F Z O (FIGITELKKLESKINAVF[Ahx]K; not fully specified (residue 20)) [0942-25] | 1.30 | 1.28 |  |  |  |
| F I G I T E L K K L E S A I N K V F Z O (FIGITELKKLESAINKVF[Ahx]K; not fully specified (residue 20)) [0942-22] | 1.10 | 1.27 |  |  |  |
| QYIKANSKFIGITELKKLESKIZO [β32] |  |  |  |  | binding to TETAQUIN (screen of overlapping 22-mer TTx peptides) [1]: good binding; also recorded: antibodies present; OD [1, 4]: 1.3; OD [1, 5]: 1.3; ELISA OD, effect of longer spacer and C- versus N-terminal biotinylation [1]: 1.16; antibodies against the peptide in individual donor sera ([2]; 14 individual sera, FIGS. 5a-5n): All donors have antibodies |
| F I G I T E L K K L E S K I N K V A Z O (FIGITELKKLESKINKVA[Ahx]K; not fully specified (residue 20)) [0942-27] | 1.26 | 1.20 |  |  |  |
| Y I G I T E L K K L E S K I N K V F Z O (YIGITELKKLESKINKVF[Ahx]K(Biotin)) [0942-28] |  |  | 1.23 | 1.30 |  |
| F I G I T E L K K L E S K I N K V F Z O [0942-09] | 1.26 | 1.36 | 1.26 | 1.36 | OD [1, 6]: 2.30 |
| F I G I T E L R K L E S K I N K V F Z O (FIGITELRKLESKINKVF[Ahx]K(Biotin)) [0942-35] |  |  | 1.02 | 0.90 |  |
| F I G I T E I K K L E S K I N K V F Z O [0942-34] |  |  | 0.72 | 0.80 |  |
| F I G I T E L K K L E S K I A K V F Z O (FIGITELKKLESKIAKVF[Ahx]K; not fully specified (residue 20)) [0942-24] | 1.37 | 1.29 |  |  |  |
| F I G I T E L K K L E S K I N K V F Z Z O (FIGITELKKLESKINKVF[Ahx][Ahx]K; not fully specified (residue 21); also: O: biotin modification, exact residue form not clear) |  |  |  |  | ELISA OD, effect of longer spacer and C- versus N-terminal biotinylation [1]: 1.16 |
| AMDIEYNDMFNNFTVSFWLRVPZO [β41] |  |  |  |  | binding to TETAQUIN (screen of overlapping 22-mer TTx peptides) [1]: good binding; also recorded: antibodies present |
| Q Y I K A N S K F I G I T E Z O (QYIKANSKFIGITE-{Ahx-code O}; reading uncertain) [P15] |  |  |  |  | OD [1, 4]: 0.25; OD [1, 5]: 0.25 |
| F I G I T E L K J L E S K I Z O [0925-65, J = Lys(formyl)] |  |  |  |  | OD [1, 6]: 1.50 |
